These results are taken from patent US4276285A, “Combinations of penicillanic acid 1,1-dioxide with 7-(D-2-[4-ethylpiperazin-2,3-dione-1-carboxamido]-2-[4-hydroxyphenyl]ace tamido)-3-([1-methyl-5-tetrazolyl]thiomethyl)-3-desacetoxymethylcephalosp oranic acid” (priority 1979, dated 1981).

As a reminder, the MIC is the lowest concentration found to suppress growth.

In test [1] the test system is resistant Escherichia coli. As to the kind of experiment: MIC alone and in combination against 30 strains of resistant Escherichia coli. The test is classed as cell-based. Here is the method:
The manner in which the compounds of the formula I increase the effectiveness of the compound of formula XXII and the pharmaceutically-acceptable salts thereof can be appreciated by reference to experiments in which the MIC of the compound of the formula XXII alone, and the compound of the formula I wherein R^1 is hydrogen alone, are measured. These MIC's are then compared with the MIC values obtained with a combination of the compound of formula XXII and the compound of the formula I, wherein R^1 is hydrogen. […] The MIC values of combinations are measured using the method described by Barry and Sabath in "Manual of Clinical Microbiology", edited by Lenette, Spaulding and Truant, 2nd edition, 1974, American Society of Microbiology.
The minimum inhibitory concentrations (MIC's) of penicillanic acid 1,1-dioxide (PA 1,1-dioxide) alone and 7-(D-2-[4-ethylpiperazine-2,3-dione-1-carboxamido]-2-[4-hydroxyphenyl]acetamido)-3-([1-methyl-5-tetrazolyl]thiomethyl)-3-desacetoxymethylcephalosporanic acid (T-1551) alone, against 30 strains of resistant Escherichia coli, were measured. These MIC's were then compared with the MIC values obtained with a combination of the two compounds. The results were as follows:
The MIC's were measured using the method recommended by the International Collaborative Study on Antibiotic Sensitivity Testing (Ericcson and Sherris, Acta. Pathologica et Microbiologica Scandivav, Supp. 217, Section B, 64-68 [1971]), which employed brain heart infusion agar and the inocular replicating device. Overnight growth tubes were diluted 10-fold for use as the standard inoculum. Twelve two-fold dilutions of the test compound were employed with initial concentration of the test drug being 200 mcg/ml. Single colonies were disregarded when reading plates after 18 hours at 37° C. […] The MIC's of combinations were measured using the method described by Barry and Sabath in "Manual of Clinical Microbiology", edited by Lenette, Spaulding and Truant, 2nd edition, 1974, American Society for Microbiology.

The subject of test [2] is microbial beta-lactamases. Briefly: Inhibition of microbial beta-lactamases. The test is classed as biochemical. The note with it: result in words.

Structures are written as SMILES.

With `CC1(C)[C@H](C(=O)O)N2C(=O)C[C@H]2S1(=O)=O` [Penicillanic Acid 1,1-Dioxide], the “Mode MIC's of T-1551 & PA 1,1-Dioxide in Combination: PA 1,1-Dioxide” value in test [1] (in combination with T-1551 (1.56)) is given as 1.56. In test [2], the “inhibition of microbial beta-lactamases” value is “potent inhibitors of microbial beta-lactamases”.

As for `CCN1CCN(C(=O)N[C@@H](C(=O)N[C@@H]2C(=O)N3C(C(=O)O)=C(CSc4nnnn4C)CS[C@H]23)c2ccc(O)cc2)C(=O)C1=O` [Example T-1551, 7-(D-2-[4-ethylpiperazine-2,3-dione-1-carboxamido]-2-[4-hydroxyphenyl]acetamido)-3-([1-methyl-5-tetrazolyl]thiomethyl)-3-desacetoxymethylcephalosporanic acid], in test [1] (alone, BHI agar, 18 hours at 37° C., read-out: Mode MIC of T-1551 alone), the MIC amounted to 100 µg/mL. In addition, the “Mode MIC's of T-1551 & PA 1,1-Dioxide in Combination: T-1551” value in test [1] (in combination with PA 1,1-Dioxide (1.56)) amounted to 1.56.
